From patent US11530458B2, “Methods of using multi-ligand metal complexes to perform oxidative catalytic pretreatment of lignocellulosic biomass” (Board of Trustees of Michigan State University, priority 2014, dated 2022)

Columns and labels:
[1] = Catalytic AOP pretreatment of alkali-extracted switchgrass, then enzymatic hydrolysis (glucose yield); parameters: species or system Panicum virgatum; conditions: for Glucose yield of enzymatic hydrolysis (% of theoretical maximum): 24 hr AOP pretreatment of AESG, catalyst concentration per table
Experimental: Screening of various metal ligand complexes (hereinafter “catalysts”) was performed via catalytic alkaline oxidative pretreatment (AOP) pretreatment of alkali-extracted switchgrass (AESG). To prepare AESG, 80 grams of untreated switchgrass (Panicum virgatum, cv. Cave-In-Rock, hammer milled to pass a 5-mm screen, and stored at a moisture content of approximately 5%) was soaked in an aqueous solution of 5 g/L NaOH at 80° C. for 2 hrs. The weight-to-volume (w/v) solids loading of switchgrass during alkaline extraction was 10% (e.g., 10 g of biomass in 100 mL NaOH solution). […] The washed solids was recovered as AESG and air-dried for over 7 days.
[Al(III)(3,5-^tBu2-salophen)Cl] [3,5-^tBu2-salophen=N,N′-bis(3,5-di-tert-butylsalicylidene)-1,2-phenylenediamine], [Zn(II)(BPPA)Cl]Cl [BPPA=N,N-bis(6-pivaloylamido-2-pyridylmethyl)-N-(2-pyridylmethyl)amine], and [NEt4][Fe(III)(bpb)Cl2]
To study the effect of catalytic AOP pretreatment on AESG, pretreatment was performed in a 100 g/L aqueous suspension of AESG in the presence of each catalyst. […] After 24 hrs of incubation at 30° C. without mixing, the pretreated switchgrass slurry was washed using deionized water to remove the alkaline phosphate buffer.
The enzymatic digestibility of AOP-pretreated switchgrass was estimated by the yield of glucose during the enzymatic hydrolysis of AOP pretreated AESG. The percentage yield was calculated on the basis of the glucan content in AESG prior to catalytic AOP pretreatment.
For enzymatic hydrolysis, 500 μL of 1 M Na-citrate buffer (pH 5) and 40 μL of 10 mM tetracycline (Sigma-Aldrich) were added to AOP-AESG that was not dried after catalytic AOP pretreatment. Accellerase 1500 (42 FPU/mL; Danisco-Genencor, Palo Alto, Calif.) was added at 50 mg protein per gram of glucan in AESG. The total volume of the mixture (solid and liquid) was adjusted with deionized water to reach a 5% (w/v) solids concentration, and the samples were incubated at 50° C. during hydrolysis.

[2] = Metal-catalyzed AOP pretreatment of chelated woody biomass, then enzymatic hydrolysis; conditions: [metal]:[bpy]=2 mM:4 mM; versus Mn-AOP and Fe-AOP; FIG. 30
Experimental: Three different pretreatment strategies were tested on each of the biomass samples: alkali only, alkaline hydrogen peroxide (AOP), and copper-catalyzed AOP (Cu-AOP). In all cases, 0.51 g of biomass (approximately 0.5 g dry basis; about 3 to about 5% moisture content) was pretreated in a total of 5.0 mL aqueous solution (10% solids loading). For alkali-only pretreatment, the solution contained 50 mg NaOH (100 mg NaOH/g biomass), while AOP pretreatment also contained 150 μL of 30% H2O2 (100 mg H2O2/g biomass). […]
Following pretreatment, 0.5 mL of 1 M citric acid buffer (pH 4.8) was added to the pretreated slurry, and the slurry was slowly titrated with 72% (w/w) H2SO4 to adjust the pH to 5.0 prior to enzymatic hydrolysis. […] The protein concentrations of the stock enzyme cocktails were quantified as y described in X. Gao, R. Kumar, S. Singh, B. A. Simmons, V. Balan, B. E. Dale and C. […]
Following enzymatic hydrolysis, the solid and liquid phases were separated by centrifugation, and the amount of glucose and xylose released into the aqueous phase was quantified by HPLC (Agilent 1260 Series equipped with an Aminex® HPX-87H column operating at 65° C., a mobile phase of 0.05 M H2SO4, a flow rate of 0.6 mL/min, and detection using an Agilent 1260 infinity refractive index detector). […]

[3] = Catalyst screening with multi-ligand metal complexes: enzymatic digestibility of hybrid poplar after AOP pretreatment; parameters: species or system Populus nigra var. charkoviensis×caudina cv. NE-19; conditions: FIG. 1
Experimental: Metal complexes (hereinafter “metal catalysts”) containing multiple or single metal coordinating ligands were tested. The metal catalysts tested included copper catalysts having a second metal coordinating ligand substituted for at least a portion of the 2,2′-bipyridine. These catalysts were evaluated for their performance in further enhancing the efficacy of AOP pretreatment of hybrid poplar. Ligands involved in the screening included histidine, glycine, di(2-picolyl)amine (dipica, 97%), 1,4,7-triazacyclononane (TACN, 95%), 2,2′;6′,2″-terpyridine (Terpy, 98%), 1,10-phenanthroline (phen, ≥99%), and tris(2-pyridylmethyl)amine (TPA, 98%, obtained from Sigma-Aldrich and Acros Organics/0). An iron 2,2′-bipyridine complex was prepared by mixing ferrous sulfate heptahydrate with 2,2′-bipyridine in an aqueous solution, and this iron complex was also tested.
The hybrid poplar (Populus nigra var. charkoviensis×caudina cv. NE-19) used in this testing was grown at the University of Wisconsin Arlington Agricultural Research Station. The hybrid poplar was harvested in 2011 and debarked using methods known in the art at the University of Wisconsin, Madison to produce heartwood and sap wood (different parts of the wood stem which can be differentiated via chemical testing). […]

copper(II) 2,2′-bipyridine complex [Cu(bpy), L/M = 3:1]
Glucose yield of enzymatic hydrolysis (% of theoretical maximum) ([1]; pH 10, 24 hrs hydrolysis): 38.67 ± 0.3 % of theoretical maximum
Glucose yield of enzymatic hydrolysis (% of theoretical maximum) ([1]; pH 10, 72 hrs hydrolysis): 42.98 ± 0.88 % of theoretical maximum
Glucose yield of enzymatic hydrolysis (% of theoretical maximum) ([1]; pH 11, 24 hrs hydrolysis): 41.65 ± 0.14 % of theoretical maximum
Glucose yield of enzymatic hydrolysis (% of theoretical maximum) ([1]; pH 11, 72 hrs hydrolysis): 44.97 ± 0.42 % of theoretical maximum
Improvement in enzymatic digestibility of AOP pretreated AESG ([1]; pH 11.5, versus no catalyst): very moderate improvement
Glucose yield of enzymatic hydrolysis (% of theoretical maximum) ([1]; pH 13, 24 hrs hydrolysis): 41.56 ± 0.06 % of theoretical maximum
Enzymatic digestibility after metal-catalyzed AOP [2]: significantly higher enzymatic digestibility than the addition of either Mn(bpy) or Fe(bpy) complexes
Performance in enhancing AOP pretreatment of hybrid poplar (enzymatic digestibility) [3]: superior performance among all candidates
